Test results: US8829014B2, “Thiazole and thiophene analogues, and their use in treating autoimmune diseases and cancers” (Board of Supervisors of Louisiana State University and …, priority 2006, dated 2014)
Marks after values point to notes of the source that are not given here.

Tests used:
Format in all cases: cell-based
ARE from TNF-α = assay: ARE screen: luciferase under post-transcriptional control of the ARE from TNF-α in RAW 264.7 cells; details: six concentrations 10 nM-3300 nM, 24 hr (FIG. 10)
From the text: Development of ARE Screen: The regulation of TNF-α and other cytokines that are involved in inflammation and cancer progression occurs, in part, at the post-transcriptional level through an AU-rich element in the 3′ UTR called ARE. The ARE regulates both the stability and the translational efficiency of the mRNA and thus represents a potential target for novel anti-inflammatory molecules. The 3′ UTR from TNF-α, which contains the ARE, was cloned in the proper orientation and used to screen a compound library as reported in reference 55. Briefly, the 3′ UTR was cloned into pMS 110, and both the UTR and parental plasmids were stably transfected into RAW264.7 cells, a macrophage cell line. Individual clones were propagated and tested for luciferase activity. […] The UTR-containing clones responded to LPS by inducing luciferase expression similar to the endogenous increase in TNF-α following LPS stimulation. […] Thus, molecules identified with this screening assay are also useful as anti-cancer agents. By analogy, thalidomide, which has been reported to work in part through posttranscriptional regulation of TNF-α, has been approved for the treatment of multiple myeloma and is now in development for the treatment of cancers.
As in the eIF4E assay, AREs are responsible for post-transcriptional regulation of gene expression, influencing both translation and mRNA stability. […]

[1] = MTT viability in skin cell line pair, tumorigenic and non-tumorigenic; details: human
[2] = tested on: Human umbilical vein endothelial cells (HUVEC); assay: Trypan blue viability count in HUVEC; details: human, 48 h, 10 μM
[3] = tested on: vascular smooth muscle cells (VSMC); assay: LDH release cytotoxicity in VSMC; details: rat, 48 h, 10 μM
FaDu cells = tested on: FaDu cells
From the text: […]. Values greater than 1.0 indicate activation, and values less than 1.0 indicate inhibition.) The compounds that inhibited luciferase translation might, potentially, act by generally inhibiting translation, by reducing cell numbers through inhibition of growth or by cell toxicity, or specifically by inhibiting highly cap-dependent translation. To analyze any general effects on cell viability, fourteen compounds were selected that altered luciferase activity (including a few that increased activity) to test for any effects on cell number. An MTT assay was used to monitor compounds for inhibition of cell growth and cell toxicity. The compounds were tested once in a six-point dose-response assay starting at 10 nM and increasing to 3.3 μM. FaDu cells were plated in a 96-well plate for 24 hr before addition of the compounds. Each compound was added in each of six concentrations (10 nM, 30 nM, 100 nM, 330 nM, 1000 nM, and 3300 nM), and each concentration was tested in triplicate. In addition, DMSO was used as a control. After incubating for 24 hr, the cell number was measured using the MTT assay.

For `COc1ccc(-n2c(-c3sc(Nc4ccc(Cl)cc4)nc3-c3ccccc3)nc3ccccc3c2=O)cc1` [Example 225, 2-[2-(4-Chloro-phenylamino)-4-phenyl-thiazol-5-yl]-3-(4-methoxyphenyl)-3H-quinazolin-4-one], the “luciferase expression in the presence of ARE” value (ARE from TNF-α) was “substantial dose response”.

With `CNc1nc(C)c(-c2nc3ccccc3c(=O)n2-c2ccc(Cl)cc2)s1` [Example 244, 2-(4-Methyl-2-methylamino-thiazol-5-yl)-3-(4-chloro-phenyl)-3H-quinazolin-4-one] the cytotoxicity at 48 h, 10 μM ([1]; Viability (MTT) % Decrease HaCaT) was 25%, the cytotoxicity at 48 h, 10 μM ([1]; Viability (MTT) % Decrease SRB12-p9) was 28% and the “Viable Cells % Decrease HUVEC” value [2] was 63# %. For the same compound, the “LDH release % Increase VSMC” value [3] was 68# %.

For “Bis-[2-(4-Chloro-phenylamino)-4-benzayl-thiazole-5-yl]-methanone [Example 134]”, the “inhibition of cell viability” value (FaDu cells) was roughly 20%.
